Laboratory results reported in article PMC6534212, “Synthesis and biological evaluation of 3–(4-aminophenyl)-coumarin derivatives as potential anti-Alzheimer’s disease agents” (Journal of Enzyme Inhibition and Medicinal Chemistry, 2019).
Entries after “also recorded” stand apart in the source; their conditions may differ.

Assays:
[1] = system: aluminium trichloride-induced zebrafish juveniles; test: Effects of compounds on aluminium trichloride-induced behavioural inhibition of zebrafish juveniles (Zebrobox); details: for Total movement distance: mean ± SE, n=8; for Effect on behavioural inhibition of zebrafish induced by aluminium trichloride (in words): compared with the model group
Description: The most suitable modelling concentrations were chosen, and then the effect of the compounds on the behaviour of the aluminium trichloride-induced zebrafish juveniles was explored.
The 72 hpf zebrafish were placed in a petri dish, and the normal developing juveniles were selected under a microscope in a 12-well plate. […] The continuous drug solution was exposed for 3 days. […] Each well was juvenile fish developed to 72 h post-exposure (hpe) and added 0.5 mL of culture water and 8 juveniles were set in each experimental group. The well plate was placed in the dark box of the zebrafish behaviour analysis system. The fish was first adapted to 10 min at the beginning of the experiment. The trajectories of the juveniles in each group were collected using zeblab software for 10 min, recorded every 5 min, and exported by software. Then calculate the total distance of each group of zebrafish juveniles.
The zebrafish with 72 hpf after fertilisation is placed in a petri dish. Under normal conditions, the normal developing juvenile fish are selected in a 12-well plate, and 15 juveniles per hole are set. Control group (0.5% DMSO), model group (5.0 mg/L AlCl3), 5.0 mg/L AlCl3 + test compound 5 μg/mL group, 5.0 mg/L AlCl3 + test compound 10 μg/mL group, 5.0 mg/L AlCl3 + test compound 50 μg/mL group, 5.0 mg/L AlCl3 + test compound 100 μg/mL group, three duplicate wells were set at each concentration. After the administration, the zebrafish was placed in a constant temperature incubator at 28 °C to continue the culture for 3 days. Changing the liquid (aquaculture water) every 24 h and removing dead young fish.

[2] = target: T1, BuChE from equine serum (Equus caballus, UniProt P81908); test: biochemical; assay type: biochemical; details: for IC50: BuChE from equine serum, mean ± SD (n=3); for BuChE inhibitory activity (in words): verbal summary of Table 2, comparison with donepezil
T1 construct: Butyrylcholinesterase (BuChE, from equine serum, Aladdin, Shanghai, China); purchased Aladdin, Shanghai, China; host or cells: equine serum
T1 sequence (P81908 whole entry): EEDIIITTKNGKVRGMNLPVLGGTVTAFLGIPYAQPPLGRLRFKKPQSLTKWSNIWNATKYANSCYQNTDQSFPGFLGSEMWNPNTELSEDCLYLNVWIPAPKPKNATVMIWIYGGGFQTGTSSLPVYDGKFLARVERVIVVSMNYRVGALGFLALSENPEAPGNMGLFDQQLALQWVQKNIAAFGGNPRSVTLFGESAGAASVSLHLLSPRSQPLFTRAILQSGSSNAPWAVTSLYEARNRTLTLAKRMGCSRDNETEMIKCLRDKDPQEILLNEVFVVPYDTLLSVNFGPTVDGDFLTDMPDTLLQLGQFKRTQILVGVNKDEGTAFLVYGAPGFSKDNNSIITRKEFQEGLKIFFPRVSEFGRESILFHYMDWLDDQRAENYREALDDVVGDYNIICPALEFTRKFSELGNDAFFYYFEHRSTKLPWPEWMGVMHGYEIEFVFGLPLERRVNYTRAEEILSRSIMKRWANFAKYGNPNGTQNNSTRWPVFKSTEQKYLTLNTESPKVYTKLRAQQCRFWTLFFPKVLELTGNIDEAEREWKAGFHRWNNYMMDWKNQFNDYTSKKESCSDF
Description: (§1) In the experiment, 0.05 mol/L phosphate buffered saline (PBS) of pH 8.0 was prepared first, and then the following solutions were prepared: 1.5 mmol/L Acetylthiocholine iodide (ATChI); 0.75 mmol/L 5, 5'-Dithiobis-(2-nitrobenzoic acid) (DTNB, Sigma Aldrich, St. Louis, MO); 0.2 U/mL Acetylcholinesterase (AChE, from […], Macklin); 0.5 U/mL Butyrylcholinesterase (BuChE, from equine serum, Aladdin, Shanghai, China); 1.5 mmol/L S-Butyrylthiocholine iodide (BTChI, Sigma Aldrich, St. Louis, MO). 4% sodium dodecyl sulphate (SDS) was prepared with secondary water. […] All solutions were stored in a refrigerator at 4 °C.
(§2) The AChE/BuChE inhibitory activity of the 3–(4-aminophenyl)-coumarin derivatives was determined by the method of Ellaman[28] with slight modifications. The experiment was divided into control group, sample blank group and sample group. Take a series of test tubes, the reagents were loaded in test tubes at the dose of Table 6. After incubation at 37 °C for 20 min, quickly add 1 mL of 4% SDS to stop the reaction. […] All experiments were run in triplicate. The absorbance was determined by UV spectrophotometer, and the inhibition rate of AChE and the IC50 value of each sample were calculated according to the formula. Inhibition rate % = {[(AC−AS)−ASB]/AC} ×100%, where AC (no sample added) is the absorbance of control group; AS is the absorbance of sample group; ASB (add sample solution but no substrate ATChI added) is the absorbance of sample blank group.
The method for determining BuChE is the same as the method for measuring AChE. The sample can be added with reference to Table 6, AChE is changed to BuChE, and the substrate ATChI is changed to substrate BTChI. The order of loading and the amount of loading are the same as Table 6. The absorbance was determined by UV spectrophotometer, and the inhibition rate of BuChE and the IC50 value of each sample were calculated according to the formula. The formula used is the same as AChE.

[3] = target: T2, AChE from Electrophorus electricus (Electrophorus electricus, UniProt O42275); test: biochemical; assay type: biochemical; details: for IC50: AChE from Electrophorus electricus, mean ± SD (n=3); for AChE inhibitory activity (in words): verbal summary of Table 2
T2 construct: purchased Macklin
T2 sequence (O42275 24-633): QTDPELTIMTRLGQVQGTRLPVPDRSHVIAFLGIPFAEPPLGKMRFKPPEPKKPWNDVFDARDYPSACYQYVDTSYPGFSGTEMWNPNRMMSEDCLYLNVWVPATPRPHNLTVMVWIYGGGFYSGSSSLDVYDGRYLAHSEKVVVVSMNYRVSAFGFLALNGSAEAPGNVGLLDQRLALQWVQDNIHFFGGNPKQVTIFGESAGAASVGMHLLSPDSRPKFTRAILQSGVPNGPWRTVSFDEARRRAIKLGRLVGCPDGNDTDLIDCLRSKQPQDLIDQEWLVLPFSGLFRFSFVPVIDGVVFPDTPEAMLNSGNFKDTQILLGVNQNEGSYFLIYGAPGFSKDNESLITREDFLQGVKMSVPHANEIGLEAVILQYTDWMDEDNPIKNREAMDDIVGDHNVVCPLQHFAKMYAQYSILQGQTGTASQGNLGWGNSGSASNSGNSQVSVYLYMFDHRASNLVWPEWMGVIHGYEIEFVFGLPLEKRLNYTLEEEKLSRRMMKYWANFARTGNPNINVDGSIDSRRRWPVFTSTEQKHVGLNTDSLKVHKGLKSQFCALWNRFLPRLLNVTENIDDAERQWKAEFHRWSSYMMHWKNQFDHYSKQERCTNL
Description: as §1, §2

[4] = 5 mg/L compound + 5.0 mg/L AlCl3, 3 days
[5] = 10 mg/L compound + 5.0 mg/L AlCl3, 3 days
[6] = 50 mg/L compound + 5.0 mg/L AlCl3, 3 days
[7] = 100 mg/L compound + 5.0 mg/L AlCl3, 3 days

Row | Structure (SMILES) | Total movement distance [1, 4] [cm] | Total movement distance [1, 5] [cm] | Total movement distance [1, 6] [cm] | Total movement distance [1, 7] [cm] | Effect on behavioural inhibition of zebrafish induced by aluminium trichloride (in words) [1] | IC50 [2] [µM] | BuChE inhibitory activity (in words) [2] | IC50 [3] [µM] | SI: selectivity index (IC50 BuChE/IC50 AChE) [3] | AChE inhibitory activity (in words) [3] | Selectivity AChE/BuChE (in words) ([3]; verbal summary of SI)
1 | COc1cccc2cc(-c3ccc(NC(=O)c4cccc(F)c4)cc3)c(=O)oc12 [Compound 4j, 3-[4-(3-fluoro-benzoylamino)-phenyl]-8-methoxy-coumarin] | 208.8 ± 9.6 | 226 ± 10.7 | 231.8 ± 13.2 | 225.7 ± 13.4 | certain therapeutic effects; also recorded: could alleviate the behavioural inhibition symptoms | 0.905 ± 0.081 | better than donepezil | 4.16 ± 0.161 | 0.217 | moderate to excellent AChE inhibitory activity | –
2 | O=C(Nc1ccc(-c2cc3ccc(O)cc3oc2=O)cc1)c1cccc(Cl)c1 [Compound 4f, 3-[4-(3-chloro-benzoylamino)-phenyl]-7-hydroxy-coumarin] | 205.7 ± 4.5 | 223.2 ± 16.4 | 236 ± 11.5 | 244.8 ± 13.6 | certain therapeutic effects; also recorded: could alleviate the behavioural inhibition symptoms | 2.56 ± 0.275 | better than donepezil | 1.94 ± 0.141 | 1.319 | moderate to excellent AChE inhibitory activity | –
3 | O=C(Nc1ccc(-c2cc3ccc(O)cc3oc2=O)cc1)c1ccco1 [Compound 5a, 3-[4-(furan-2-formylamino)-phenyl]-7-hydroxy-coumarin] | 194.2 ± 6.5 | 188.8 ± 14.7 | 215.5 ± 17.1 | 187.2 ± 6.2 | – | 9.55 ± 0.455 | – | 2.49 ± 0.151 | 3.842 | moderate to excellent AChE inhibitory activity | –
4 | COc1cccc2cc(-c3ccc(NC(=O)c4ccc5ccccc5c4)cc3)c(=O)oc12 [Compound 7b, 3-[4-(2-naphthoylamino)-phenyl]-8-methoxy-coumarin] | – | 278.4 ± 11.4 | 227.4 ± 8.1 | 272.1 ± 10.4 | – | 43.8 ± 1.97 | – | 0.128 ± 0.011 | 341.87 | moderate to excellent AChE inhibitory activity | highly selective for AChE
5 | COc1cccc2cc(-c3ccc(NC(=O)c4cccs4)cc3)c(=O)oc12 [Compound 7d, 3-[4-(thiophene-2-formylamino)-phenyl]-8-methoxy-coumarin] | 202.9 ± 6.2 | 208.4 ± 9.7 | 224.2 ± 9.2 | 235.4 ± 11.4 | certain therapeutic effects; also recorded: could alleviate the behavioural inhibition symptoms | 4.65 ± 0.245 | – | 6.63 ± 0.12 | 0.700 | moderate to excellent AChE inhibitory activity | –
6 | COc1cccc2cc(-c3ccc(NC(=O)c4ccc(C(F)(F)F)cc4)cc3)c(=O)oc12 [Compound 4l, 3-[4-(4-trifluoromethyl-benzoylamino)-phenyl]-8-methoxy-coumarin] | 179.9 ± 10.1 | 194.6 ± 13.6 | 211.5 ± 20.2 | 184.8 ± 11.5 | – | 4.32 ± 0.685 | – | 5.6 ± 0.132 | 0.772 | moderate to excellent AChE inhibitory activity | –
